Data: patent US12285437B2 (The Research Foundation for The State University of new York, priority 2019, dated 2025)
Read-outs that look alike come from different tables or passages of the source.

Assays:
[1] = cancer patients, two hours afterwards; cited from earlier work
ES2 cells = assay: Imaging studies (confocal microscopy); type: cell-based, human; details: ES2, 1 h
Procedure: Afterwards, the treatment solution was removed; the nuclei of the cells were labeled with staining dye Hoechst 33342; and then images were taken on a scanning confocal microscope.
Imaging studies (confocal microscopy). Approximately 8,000 ES2 cells were seeded on a colIagen-coated glass dish (MatTek Corporation, part No. P35GCOL-0-10-C) and cultured in McCoy's 5A medium with 10% fetal bovine serum and 1% penicillin-streptomycin at 37° C. in the incubator (5% CO2) overnight. […] After treatment solution was removed, the cells were washed 1× with 100 μL of DMEM/F12 pH-specific media. Prior to fluorescence imaging, the nuclei of cells were stained with 1 μg/mL Hoechst 33342 in PBS for 20 min at 37° C. in the incubator. Afterwards, cells stayed in pH-specific DMEM/F12 media during imaging. […] The images in FIGS. 33-36 were processed using LAS X and ImageJ.

[2] = test system: SKOV3 human ovarian cancer cells; details: FIG. 9A, 4 μM
Procedure: (§1) pH-dependent anti-proliferation assays with cells. In 96-well plates, ˜3,000 cells were seeded per well then grown for 24-48 hr until 30-40% confluency. […] For serum effect cell plate data shown in FIG. 5I, cell viability was measured using alamar Blue assay (i.e., growth media was replaced with 45 μL of pH 7.4 DMEM/F-12 media without phenol red, 5 μL of alamar Blue reagent (10×) was added; fluorescence at 590 nm was recorded after excitation at 560 nm at 1 hr afterwards).
(§2) The reaction solution was allowed to stand at rt for 1 hr in the dark, during which the pH decreased to ˜9.6. After 1 hr, the reaction solution was split into two 50-μL portions (for pH 7.4 vs. pH 6.2-6.8 cell experiments). The pH of one portion was adjusted to pH 8 (for pH 7.4 cell experiments) or pH 7 (for pH 6.2-6.8 cell experiments). Subsequently, the solution was diluted 30-fold (to 10 μM) with pH 7.4 or pH 6.2-6.8 cell media (final volume 1.5 mL) and then filtered (0.2 micron) before used in cell experiments.

ES2 ovarian cancer cells = assay: Antiproliferation assays against ES2 cancer cells at different pH values; type: cell-based, human; details: ES2, 2 h, 1 μM
Procedure: For cell experiments, a pH 8 or pH 10 (directly from DMI to DMA conversion) solution of DMA 2/4/6 was sterilized by filtering through a 0.2-micron membrane. […] At this point, small amounts of 10 (or 25) mM of sterile aq.
Antiproliferation assays against ES2 cancer cells at different pH values. […] Treatment solution volume was 50-100 μL per well, with a set volume per well for all wells in a plate.

[3] = test system: noncancerous kidney epithelial HK2 cells; assay: Cytotoxicity assays with noncancerous HK2 kidney cells; type: cell-based, human
Procedure: Cytotoxicity assays with noncancerous HK2 kidney cells. […] Dox and DMA prodrug experiments were carried out on separate plates. […] The cell viability in vehicle (buffer/DMSO) negative control treatment groups were treated as 100% during normalization of data.

[4] = test system: PC-3 human prostate cancer cells; details: FIG. 9B, PC3, […], 4 μM
Procedure: as §1, §2

[5] = test system: MDA-MB-231 human breast cancer cells; details: 3 μM
Procedure: as §1, §2

[6] = test system: NIH:OVCAR3 human ovarian cancer cells
Procedure: as §1, §2

[7] = test system: ES-2 human ovarian cancer cells; assay: pH-dependent anti-proliferation assay (MTS; alamar Blue for FIG. 7I); details: for Cell Viability Average (Avg): FIG. 7A, ES-2, 6 hr
Source text: pH-dependent anti-proliferation assays with cells.
NaOH to adjust the pH to 9.9.

COc1cccc2c1C(=O)c1c(O)c3c(c(O)c1C2=O)C[C@@](O)(C(=O)CO)C[C@@H]3O[C@H]1C[C@H](N)[C@H](O)[C@H](C)O1 [Dox, doxorubicin]
intratumoral concentration [1]: 0.5 to 5 mM
distribution of Dox fluorescence within cells (ES2 cells): within the nuclei
Dox fluorescence signals in cells, pH 6.7 vs. 7.7 (ES2 cells; 4 μM Dox or 8 μM prodrug/DMI): More Dox fluorescence signals were observed at pH 7.7 than 6.7
Cell Viability Avg ([2]; pH 6.3-6.5): 39%
Cell Viability Avg ([2]; pH 7.5-7.6): 22%
viability (ES2 ovarian cancer cells; pH 6.6-6.8): 60-70%
viability (ES2 ovarian cancer cells; FIG. 29A, pH 6.7): 60-70%
viability (ES2 ovarian cancer cells; FIG. 29A, pH 7.5): 28%
viability (ES2 ovarian cancer cells; FIG. 31A, pH 6.5-6.8): 40-60%
viability (ES2 ovarian cancer cells; FIG. 31A, pH 7.5): ~20%
viability ([3]; FIG. 29B, HK2, pH 7.4, 30 μM): 21%
cells killed ([3]; FIG. 30B, HK2, pH 7.4, 1 μM): 20%
viable cells ([3]; FIG. 30B, HK2, pH 7.4, 30 μM): 31%
cells killed ([3]; FIG. 31B, HK2, pH 7.4, 30 μM): > 80%
Cell Viability Avg ([4]; pH 6.3-6.4): 53%
Cell Viability Avg ([4]; pH 7.5-7.6): 15%
Cell Viability Avg ([5]; FIG. 7B, MDA-MB231, 2 hr, pH 6.3-6.4): 30%
Cell Viability Avg ([5]; FIG. 7B, MDA-MB231, 2 hr, pH 7.6-7.7): 15%
Cell Viability Avg ([5]; FIG. 7F, MDA-MB231, […], pH 6.3-6.4): 30%
Cell Viability Avg ([5]; FIG. 7F, MDA-MB231, […], pH 6.5): 29%
Cell Viability Avg ([5]; FIG. 7F, MDA-MB231, […], pH 6.6-6.7): 36%
Cell Viability Avg ([5]; FIG. 7F, MDA-MB231, […], pH 6.9-7.0): 30%
Cell Viability Avg ([5]; FIG. 7F, MDA-MB231, […], pH 7.2-7.3): 29%
Cell Viability Avg ([5]; FIG. 7F, MDA-MB231, […], pH 7.5-7.7): 31%
Cell Viability Avg ([6]; FIG. 7C, OVCAR3, 2 hr, 3 μM, pH 6.3-6.4): 57%
Cell Viability Avg ([6]; FIG. 7C, OVCAR3, 2 hr, 3 μM, pH 7.4-7.6): 24%
Cell Viability Avg ([6]; FIG. 7G, OVCAR3, 2 hr, 2 μM, pH 6.2-6.4): 60%
Cell Viability Avg ([6]; FIG. 7G, OVCAR3, 2 hr, 2 μM, pH 6.4-6.5): 55%
Cell Viability Avg ([6]; FIG. 7G, OVCAR3, 2 hr, 2 μM, pH 6.6-6.7): 58%
Cell Viability Avg ([6]; FIG. 7G, OVCAR3, 2 hr, 2 μM, pH 6.8-6.9): 46%
Cell Viability Avg ([6]; FIG. 7G, OVCAR3, 2 hr, 2 μM, pH 7.1-7.3): 51%
Cell Viability Avg ([6]; FIG. 7G, OVCAR3, 2 hr, 2 μM, pH 7.2-7.5): 48%
Cell Viability Avg ([6]; FIG. 10A, OVCAR3, 6 hr, 1 μM, pH 6.5-6.7): 81%
Cell Viability Avg ([6]; FIG. 10A, OVCAR3, 6 hr, 1 μM, pH 7.3-7.6): 51%
Cell Viability Average (Avg) ([7]; 0.5 μM, pH 6.6-6.8): 32%
Cell Viability Average (Avg) ([7]; 0.5 μM, pH 7.2-7.5): 16%
Cell Viability Avg ([7]; FIG. 7E, ES2, […], 1 μM, pH 6.3-6.4): 43%
Cell Viability Avg ([7]; FIG. 7E, ES2, […], 1 μM, pH 6.5): 49%
Cell Viability Avg ([7]; FIG. 7E, ES2, […], 1 μM, pH 6.7-6.8): 44%
Cell Viability Avg ([7]; FIG. 7E, ES2, […], 1 μM, pH 6.8-6.9): 42%
Cell Viability Avg ([7]; FIG. 7E, ES2, […], 1 μM, pH 7.2): 25%
Cell Viability Avg ([7]; FIG. 7E, ES2, […], 1 μM, pH 7.2-7.4): 23%
Cell Viability Avg ([7]; FIG. 7I, ES2, FBS(50%), 1 μM, pH 6.5-6.9): 71%
Cell Viability Avg ([7]; FIG. 7I, ES2, FBS(50%), 1 μM, pH 7.2-7.7): 36%
Cell Viability Avg ([7]; FIG. 7I, ES2, no FBS, 1 μM, pH 6.5-6.9): 77%
Cell Viability Avg ([7]; FIG. 7I, ES2, no FBS, 1 μM, pH 7.2-7.7): 48%
Cell Viability Avg ([7]; FIG. 8A, ES2, 0.1 μM, pH 6.6-6.7): 87%
Cell Viability Avg ([7]; FIG. 8A, ES2, 0.1 μM, pH 7.5-7.6): 62%
Cell Viability Avg ([7]; FIG. 8A, ES2, 0.3 μM, pH 6.6-6.7): 72%
Cell Viability Avg ([7]; FIG. 8A, ES2, 0.3 μM, pH 7.5-7.6): 33%
Cell Viability Avg ([7]; FIG. 8A, ES2, 1 μM, pH 6.6-6.7): 35%
Cell Viability Avg ([7]; FIG. 8A, ES2, 1 μM, pH 7.5-7.6): 15%
Cell Viability Avg ([7]; FIG. 8A, ES2, 3 μM, pH 6.6-6.7): 21%
Cell Viability Avg ([7]; FIG. 8A, ES2, 3 μM, pH 7.5-7.6): 2%
Cell Viability Avg ([7]; FIG. 8B, ES2, 2 hr, 1 μM, pH 6.6-6.8): 44%
Cell Viability Avg ([7]; FIG. 8B, ES2, 2 hr, 1 μM, pH 7.2-7.6): 23%
Cell Viability Avg ([7]; FIG. 8B, ES2, 6 hr, 0.5 μM, pH 6.6-6.8): 32%
Cell Viability Avg ([7]; FIG. 8B, ES2, 6 hr, 0.5 μM, pH 7.2-7.6): 16%
Cell Viability Avg ([7]; FIG. 8B, ES2, 12 hr, 0.5 μM, pH 6.6-6.8): 47%
Cell Viability Avg ([7]; FIG. 8B, ES2, 12 hr, 0.5 μM, pH 7.2-7.6): 13%
Cell Viability Avg ([7]; FIG. 8B, ES2, 24 hr, 1 μM, pH 6.6-6.8): 35%
Cell Viability Avg ([7]; FIG. 8B, ES2, 24 hr, 1 μM, pH 7.2-7.6): 15%
Cell Viability Avg ([7]; FIG. 10B, ES2, 12 hr, 0.5 μM, pH 6.6-6.7): 47%
Cell Viability Avg ([7]; FIG. 10B, ES2, 12 hr, 0.5 μM, pH 7.4-7.6): 13%
